Assay results published in paper PMC8182759, “Cryo-Electron Microscopy of Arabidopsis thaliana Phytochrome A in Its Pr State Reveals Head-to-Head Homodimeric Architecture” (Frontiers in Plant Science, 2021).

T1: AtphyA (Arabidopsis thaliana phytochrome A, full length) (Arabidopsis thaliana, UniProt P14712)
T1 construct: gene PHYA; full length, residues 1-1122, C-terminal hexahistidine tag kept; E. coli BL21(DE3) LOBSTR, plasmid pDG388 co-expressing Synechocystis heme oxygenase and PcyA; homodimer (dimer/monomer mixture at pH 9.3)
T1 sequence (P14712 1-1122): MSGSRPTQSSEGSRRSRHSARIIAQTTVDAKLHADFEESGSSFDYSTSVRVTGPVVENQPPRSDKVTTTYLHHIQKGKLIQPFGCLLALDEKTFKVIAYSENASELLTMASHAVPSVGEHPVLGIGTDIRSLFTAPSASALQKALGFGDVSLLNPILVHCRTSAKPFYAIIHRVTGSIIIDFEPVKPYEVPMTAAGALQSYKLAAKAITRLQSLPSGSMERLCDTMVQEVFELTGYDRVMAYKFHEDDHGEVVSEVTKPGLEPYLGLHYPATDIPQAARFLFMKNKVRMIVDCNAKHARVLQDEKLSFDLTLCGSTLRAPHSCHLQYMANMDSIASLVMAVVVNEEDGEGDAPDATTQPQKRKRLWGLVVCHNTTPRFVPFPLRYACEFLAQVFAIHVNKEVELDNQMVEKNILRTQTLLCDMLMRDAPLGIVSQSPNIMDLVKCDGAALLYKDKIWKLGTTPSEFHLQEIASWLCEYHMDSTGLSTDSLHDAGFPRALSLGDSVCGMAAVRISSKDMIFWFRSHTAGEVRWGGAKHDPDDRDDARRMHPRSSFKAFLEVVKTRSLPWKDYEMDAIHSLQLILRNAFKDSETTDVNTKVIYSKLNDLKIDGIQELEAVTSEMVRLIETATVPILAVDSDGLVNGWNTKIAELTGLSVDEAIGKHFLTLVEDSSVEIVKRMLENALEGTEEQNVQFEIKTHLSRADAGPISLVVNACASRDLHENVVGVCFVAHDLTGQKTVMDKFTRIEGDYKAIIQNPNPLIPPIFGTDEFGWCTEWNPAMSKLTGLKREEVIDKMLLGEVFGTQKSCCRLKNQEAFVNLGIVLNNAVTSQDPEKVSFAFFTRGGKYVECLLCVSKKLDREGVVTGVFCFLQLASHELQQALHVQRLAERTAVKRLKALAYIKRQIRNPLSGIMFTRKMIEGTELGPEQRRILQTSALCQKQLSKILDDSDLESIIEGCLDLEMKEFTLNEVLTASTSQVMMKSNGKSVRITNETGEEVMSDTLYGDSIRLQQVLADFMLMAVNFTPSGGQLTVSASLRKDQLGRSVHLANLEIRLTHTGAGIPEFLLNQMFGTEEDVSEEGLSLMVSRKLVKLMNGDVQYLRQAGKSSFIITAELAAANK


Experiments:
[1] = target: T1, AtphyA (Arabidopsis thaliana phytochrome A, full length); assay: zinc-induced bilin fluorescence on denaturing gel; UV/vis absorbance and photoconversion; format: binding; settings: covalent; bilin attached to a cysteine of the GAF domain; assembled during co-expression in E. coli with heme oxygenase/PcyA; purified at pH 8.0
[2] = target: the molecule itself; assay: cryo-EM structure; single-particle cryo-EM of AtphyA purified at pH 9.3, Pr state (730 nm pre-illumination), 1-1.5 mg/ml, 136,173 particles, refinement with 2-fold symmetry, ~17 Å

Molecule | zinc-induced bilin fluorescence on denaturing gel; UV/vis absorbance and photoco [1] | stoichiometry N [2]
C/C=C1/C(=C/c2[nH]c(/C=C3N=C(/C=C4\NC(=O)C(CC)=C4C)C(C)=C\3CCC(=O)O)c(CCC(=O)O)c2C)NC(=O)[C@@H]1C [phycocyanobilin] | full-length AtphyA could be obtained with covalently attached PCB, as detected by zinc-induced bilin fluorescence | –
Arabidopsis thaliana phytochrome A (receptor, UniProt P14712 1-1122, looked up, covalently attached phycocyanobilin (PCB) chromophore, Studied in the Pr state after 730 nm illumination; A plasmid map of pDG388 is in the Supplementary Material; No removal of the His tag is described; also called AtphyA; phyA; source: E. coli BL21(DE3) LOBSTR, purified (Ni-NTA IMAC, SEC), coexpressed with Synechocystis sp. heme oxygenase and PcyA) MSGSRPTQSSEGSRRSRHSARIIAQTTVDAKLHADFEESGSSFDYSTSVRVTGPVVENQPPRSDKVTTTYLHHIQKGKLIQPFGCLLALDEKTFKVIAYSENASELLTMASHAVPSVGEHPVLGIGTDIRSLFTAPSASALQKALGFGDVSLLNPILVHCRTSAKPFYAIIHRVTGSIIIDFEPVKPYEVPMTAAGALQSYKLAAKAITRLQSLPSGSMERLCDTMVQEVFELTGYDRVMAYKFHEDDHGEVVSEVTKPGLEPYLGLHYPATDIPQAARFLFMKNKVRMIVDCNAKHARVLQDEKLSFDLTLCGSTLRAPHSCHLQYMANMDSIASLVMAVVVNEEDGEGDAPDATTQPQKRKRLWGLVVCHNTTPRFVPFPLRYACEFLAQVFAIHVNKEVELDNQMVEKNILRTQTLLCDMLMRDAPLGIVSQSPNIMDLVKCDGAALLYKDKIWKLGTTPSEFHLQEIASWLCEYHMDSTGLSTDSLHDAGFPRALSLGDSVCGMAAVRISSKDMIFWFRSHTAGEVRWGGAKHDPDDRDDARRMHPRSSFKAFLEVVKTRSLPWKDYEMDAIHSLQLILRNAFKDSETTDVNTKVIYSKLNDLKIDGIQELEAVTSEMVRLIETATVPILAVDSDGLVNGWNTKIAELTGLSVDEAIGKHFLTLVEDSSVEIVKRMLENALEGTEEQNVQFEIKTHLSRADAGPISLVVNACASRDLHENVVGVCFVAHDLTGQKTVMDKFTRIEGDYKAIIQNPNPLIPPIFGTDEFGWCTEWNPAMSKLTGLKREEVIDKMLLGEVFGTQKSCCRLKNQEAFVNLGIVLNNAVTSQDPEKVSFAFFTRGGKYVECLLCVSKKLDREGVVTGVFCFLQLASHELQQALHVQRLAERTAVKRLKALAYIKRQIRNPLSGIMFTRKMIEGTELGPEQRRILQTSALCQKQLSKILDDSDLESIIEGCLDLEMKEFTLNEVLTASTSQVMMKSNGKSVRITNETGEEVMSDTLYGDSIRLQQVLADFMLMAVNFTPSGGQLTVSASLRKDQLGRSVHLANLEIRLTHTGAGIPEFLLNQMFGTEEDVSEEGLSLMVSRKLVKLMNGDVQYLRQAGKSSFIITAELAAANK | – | 2
